Values quoted from earlier work as cited in patent US6667408B2, “Process for preparing cyclic polyethers” (Japan Science and Technology Corporation, priority 2000, dated 2003).

System: mice
Settings: i.p.

SMILES: C=CC/C=C\C=C/[C@H]1O[C@H]2C[C@H]3O[C@H]4CC[C@H]5O[C@H]6C[C@@]7(C)O[C@@]8(C)[C@@H](O)C[C@H](CCCO)O[C@@H]8C[C@@H]7O[C@@H]6C[C@@H]5O[C@]4(C)C[C@]3(C)O[C@@H]2C=C[C@]1(C)O [gambierol]
- LD50: 0.05 mg/kg
